Measurements: publication PMC12563652 (International Journal of Molecular Sciences, 2025)
Entries after “also recorded” stand apart in the source; their conditions may differ.

Assays:
[1] = biological target: T1, 5-HT2C serotoninergic receptor (Homo sapiens, UniProt P28335); assay: 5-HT2C intrinsic activity, antagonist mode (AequoScreen calcium mobilization); type: cell-based; settings: n.a. = no activity at 10–5 M
T1 sequence (P28335 33-458): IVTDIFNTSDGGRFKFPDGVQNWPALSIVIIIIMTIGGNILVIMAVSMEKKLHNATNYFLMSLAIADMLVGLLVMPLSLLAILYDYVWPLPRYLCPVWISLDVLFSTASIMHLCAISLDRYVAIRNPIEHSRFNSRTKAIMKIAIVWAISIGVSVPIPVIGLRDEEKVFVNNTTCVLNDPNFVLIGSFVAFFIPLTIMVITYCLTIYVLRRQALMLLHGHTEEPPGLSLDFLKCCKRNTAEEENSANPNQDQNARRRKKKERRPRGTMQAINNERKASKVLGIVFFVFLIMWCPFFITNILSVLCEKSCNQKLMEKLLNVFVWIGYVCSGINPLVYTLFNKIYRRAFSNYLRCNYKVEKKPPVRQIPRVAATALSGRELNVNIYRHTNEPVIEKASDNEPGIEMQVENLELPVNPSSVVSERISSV
Experimental: The determination of intrinsic activity will be performed in accordance with the manufacturer’s Aequoscreen methodology—Perkin Elmer.
The cell density in the 96-well format was 5000 cells per well. Cell preparation for the assay was performed according to the manufacturer’s instructions for AequoScreen (PerkinElmer, Waltham, MA, USA). […] The cells suspension was applied onto the ligands with the injectors of the POLARstar optima reader (BMG Labtech, Ortenberg, Germany). […] The concentration and dilution series having four replicates were prepared as instructed in the AequoScreen Starter Kit Manual (PerkinElmer, Waltham, MA, USA). The wells received cell injections along with either the standard agonist or the compounds being evaluated, while the POLARstar optima reader documented the emitted light over a duration of 20 s. In the antagonist evaluation, cells were administered (50 μL) into the assay plate alongside antagonist solutions (50 μL). A single concentration of agonist (oxymetazoline) was injected (50 μL, final concentration EC80) into the preincubated (15–20 min) plate with cells and antagonist, and the emitted light was recorded for 20 s.

3T3-L1 cell line = assay: Cell viability assay (PrestoBlue, metabolic function), 3T3-L1; type: cell-based, mouse; settings: 24 h, mean
Experimental: Prior to investigating the biological activity and molecular characteristics of the test compounds in vitro, a comprehensive cytotoxicity screening was performed using HepG2 and 3T3-L1 cell lines. Two complementary assays were applied: one based on the quantification of adenylate kinase release as an indicator of cell membrane damage, and another relying on resazurin reduction to assess cellular metabolic activity. These complementary assays enable sensitive and reliable detection of cytotoxic effects across diverse cell types. This preliminary assessment was carried out to ensure that subsequent functional analyses would not be confounded by nonspecific cytotoxic effects.
Cell viability was measured using PrestoBlue reagent (Thermo Fisher Scientific, Waltham, MA, USA), following the manufacturer’s instructions. After 24 h of compound treatment, PrestoBlue reagent was added to each well at 10% of the remaining medium volume. The plate was incubated at 37 °C for 15 min, and fluorescence was measured using the POLARstar Omega plate reader (excitation 530 nm, emission 580 nm). Results were expressed as a percentage of viable cells relative to the DMSO-treated control.

Danio rerio larvae [2] = assay: Fructose-induced lipid disturbance in zebrafish larvae (Oil Red O); type: in vivo; settings: 10 µg/mL with 4% fructose, 24 h
Experimental: Zebrafish larvae 4 dpf were incubated for another 24 h with 4% fructose (final solution) in embryo medium to induce metabolic disorders. Tested solutions (compounds in E3: JP-14 at concentration of 20 μg/mL or resveratrol of 40 μg/mL) were added to fructose solution (8% in E3). The final concentration of JP-14 was 10 μg/mL or resveratrol of 20 μg/mL. The control group was incubated with E3 only. Incubation was carried out in a 6-well plate (10 larvae/well) to which 3 mL of liquid was added per well. Larvae were then collected, euthanized with tricaine, and transferred to 4% formaldehyde solution. After 24 h, larvae were washed 3 times with PBS (Sigma-Aldrich, Germany) and stained for neutral lipids, similar to previous studies. Larvae incubated for 1 h in a solution of 0.25% oil red O (ORO, Merck, Darmstadt, Germany) in 60% isopropanol (Merck, Germany). The samples were then rinsed three times with 60% isopropanol and washed 6 times with PBS, then imaged on a microscope (OPTA-TECH MN16, Warszawa, Poland) and analyzed with the ImageJ FIJI program. […] Next, the samples were centrifuged (10 min, 3000 rpm, MPW-260R, MPW Med Instruments, Warszawa, Poland), and the amount of dye in supernatant was determined spectrophotometrically (MuLTISKAN.GO, Thermo Fisher Scientific Inc. Waltham, MA, USA) at a wavelength of 495 nm.

Danio rerio larvae [3] = assay: In vivo toxicity assay in zebrafish larvae (Casper and ABTL lines)
Experimental: To determine the toxicity of JP-14 to zebrafish larvae, 76 h post-fertilized (hpf) larvae ([…], ten per well) were kept in a 6-well plate and exposed to three concentrations of compound JP-14 diluted with embryonic medium (E3), whereas untreated larvae served as control (E3 alone). Each concentration was incubated in twelve wells. The mortality rate and disturbances were determined using a microscope (OPTA-TECH MN16, Warszawa, Poland) after 24 h of exposure.

α2-adrenoceptor = assay: Competitive radioligand binding, [3H]clonidine, rat cerebral cortex; settings: n.a. = no activity at 10–5 M
Experimental: The competitive radioligand-binding assay assessed affinity for α1- and α2-adrenoceptors. Experiments were carried out in the rat cerebral cortex. […] The membrane preparation and assay technique followed the previously reported protocol [10]. Radioactivity was measured using the MicroBeta2 scintillation counter (PerkinElmer, Kraków, Poland). The data was adjusted to match a single-site curve-fitting formula using Prism 8 (GraphPad Software, La Jolla, CA, USA), and the Ki values were estimated by means of the Cheng–Prusoff formula.

α2A-adrenoceptor = biological target: T2, α2A-adrenoceptor (Homo sapiens, UniProt P08913); assay: α2A-adrenoceptor intrinsic activity, agonist mode (Tango bla reporter assay); type: cell-based; settings: read-out: α2A Ago Emax, receptor activation relative to the full agonist control
T2 sequence (P08913 1-465): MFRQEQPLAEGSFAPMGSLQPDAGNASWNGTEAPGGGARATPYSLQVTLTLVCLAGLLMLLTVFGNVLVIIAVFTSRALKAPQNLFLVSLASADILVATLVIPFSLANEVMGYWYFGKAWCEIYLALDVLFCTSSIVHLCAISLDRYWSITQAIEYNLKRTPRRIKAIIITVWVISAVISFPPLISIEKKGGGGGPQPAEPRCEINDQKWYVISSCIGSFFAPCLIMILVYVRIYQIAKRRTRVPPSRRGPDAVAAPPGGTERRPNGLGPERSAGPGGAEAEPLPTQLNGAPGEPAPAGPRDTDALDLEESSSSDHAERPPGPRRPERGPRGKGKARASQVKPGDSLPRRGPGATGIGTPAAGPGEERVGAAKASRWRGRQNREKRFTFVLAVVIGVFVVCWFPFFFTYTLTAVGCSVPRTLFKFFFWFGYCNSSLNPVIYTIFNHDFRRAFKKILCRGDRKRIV
Experimental: Intrinsic α2A-adrenoceptor activity was assessed using Tango assay technology, which utilizes a mammalian-optimized beta-lactamase (bla) reporter gene in conjunction with a FRET-enabled substrate to provide reliable and sensitive detection in cells. The intrinsic activity test was conducted based on the guidelines provided by the maker of the test kit (Invitrogen, Life Technologies, Carlsbad, CA, USA). […] To perform the agonist assay, 8 μL of a 5-fold higher concentration of agonist in assay medium was added to the cells. […] The agonist and antagonist plates were then incubated in a humidified incubator at 37 °C and 5% CO2 for 5 h. After incubation, cells were loaded with 8 μL of LiveBLAzer™-FRET B/G substrate mix (CCF4-AM), covered for light protection, and incubated at room temperature for 2 h.

[4] = tested on: platelet aggregation in rat whole blood; assay: In vitro collagen-induced platelet aggregation in rat whole blood (impedance aggregometry); type: cell-based; settings: 50–200 µM, collagen 1.6 µg/mL
Experimental: In vitro platelet aggregation assays were conducted using freshly collected whole blood from rats, utilizing the Multiplate platelet function analyzer (Roche Diagnostics, Mannheim, Germany)—a five-channel device that measures electrical impedance, following methods described previously. Upon stimulation, platelets adhere to and aggregate on dual metal sensors within the test cuvette, causing an increase in electrical resistance, which corresponds to the number of platelets attached to the electrodes.
Blood was collected from the carotid artery of the rat into tubes coated with hirudin (S-Monovette, Sarstedt, Germany). A volume of 300 μL of the anticoagulated blood was mixed with 300 μL of prewarmed isotonic saline that contained the test compound or a vehicle control (0.1% DMSO) and incubated at 37 °C for 3 min under continuous stirring. Aggregation was triggered by adding collagen (final concentration: 1.6 µg/mL). Platelet activity was monitored for 6 min. Multiplate V2.04 software calculated the area under the curve (AUC) for each measurement to determine average platelet response.

SMILES: [H]/N=C(\N)NN=Cc1c(Cl)cncc1Cl [JP-14, (E)-2-((3,5-Dichloropyridin-4-yl)Methylene)Hydrazine-1-Carboximidamide]
- 5-HT2C Ant EC50 [1]: did not exhibit any measurable agonistic or antagonistic activity
- cellular metabolic function, percentage relative to control (live cells) (3T3-L1 cell line; Table S5, 0.1 μM): 87%
- cellular metabolic function, percentage relative to control (live cells) (3T3-L1 cell line; Table S5, 1 μM): 85%
- cellular metabolic function, percentage relative to control (live cells) (3T3-L1 cell line; Table S5, 10 μM): 82%
- cellular metabolic function, percentage relative to control (live cells) (3T3-L1 cell line; Table S5, 50 μM): 80%
- cellular metabolic function, percentage relative to control (live cells) (3T3-L1 cell line; Table S5, 100 μM): 51%
- fructose-induced yolk enlargement (Danio rerio larvae [2]): partially attenuated
- effect on pigmentation (Danio rerio larvae [3]): no effect on pigmentation was observed
- concentration not causing any visible disturbances (Danio rerio larvae [3]; Casper and AB/TL lines, zebrafish (Danio rerio), 24 h): 10000 ng/mL
- Ki (α2-adrenoceptor): 126 ± 27 nM
- Emax (α2A-adrenoceptor): ~15%
- effect on collagen-induced platelet aggregation [4]: did not alter; also recorded: did not influence
